{
  "source": "ChEMBL document CHEMBL1201862",
  "about": "“PubChem BioAssay data set” (2004)",
  "key": {"[1]": {"test": "A High Throughput Confirmatory Assay used to Identify Novel Compounds that Inhibit Mycobacterium Tuberculosis in the absence of Glycerol.", "assay_type": "functional"}, "[2]": {"test": "viability of uninfected HEp-2 cells – cell-based, HTS, cytotoxicity control for RSV inhibitor project, dose response (AID 2410)", "assay_type": "functional", "conditions": "human respiratory syncytial virus"}, "[3]": {"test": "cells"}, "[4]": {"target": "Cytochrome P450 2D6 (Homo sapiens, UniProt P10635)", "sequence (P10635 whole entry)": "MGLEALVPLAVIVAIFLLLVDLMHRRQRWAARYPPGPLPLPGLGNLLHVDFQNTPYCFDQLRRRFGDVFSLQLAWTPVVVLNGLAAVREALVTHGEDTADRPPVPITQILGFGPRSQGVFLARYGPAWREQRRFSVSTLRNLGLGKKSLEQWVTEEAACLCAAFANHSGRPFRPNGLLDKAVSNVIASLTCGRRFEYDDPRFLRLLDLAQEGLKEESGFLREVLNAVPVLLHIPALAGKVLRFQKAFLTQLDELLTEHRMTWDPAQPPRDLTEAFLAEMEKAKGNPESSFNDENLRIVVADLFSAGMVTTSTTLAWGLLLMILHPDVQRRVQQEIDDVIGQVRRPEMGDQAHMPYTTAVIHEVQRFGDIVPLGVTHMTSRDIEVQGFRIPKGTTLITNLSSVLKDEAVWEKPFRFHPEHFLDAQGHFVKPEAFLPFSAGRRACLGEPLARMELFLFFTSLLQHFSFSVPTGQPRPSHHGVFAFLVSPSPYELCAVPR", "test": "qHTS Assay for Inhibitors and Substrates of Cytochrome P450 2D6. [Related pubchem assays: 410 ]", "assay_type": "ADME", "conditions": "read-out: Potency"}, "[5]": {"target": "Acyl-homoserine lactone acylase PvdQ (Pseudomonas aeruginosa (strain LESB58), UniProt Q9I194)", "sequence (Q9I194 24-193 limits assumed)": "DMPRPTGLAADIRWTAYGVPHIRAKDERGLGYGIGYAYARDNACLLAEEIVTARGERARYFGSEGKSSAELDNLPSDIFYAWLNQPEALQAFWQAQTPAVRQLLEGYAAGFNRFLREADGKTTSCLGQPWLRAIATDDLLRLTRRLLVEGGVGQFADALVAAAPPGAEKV", "sequence (Q9I194 217-762 limits assumed)": "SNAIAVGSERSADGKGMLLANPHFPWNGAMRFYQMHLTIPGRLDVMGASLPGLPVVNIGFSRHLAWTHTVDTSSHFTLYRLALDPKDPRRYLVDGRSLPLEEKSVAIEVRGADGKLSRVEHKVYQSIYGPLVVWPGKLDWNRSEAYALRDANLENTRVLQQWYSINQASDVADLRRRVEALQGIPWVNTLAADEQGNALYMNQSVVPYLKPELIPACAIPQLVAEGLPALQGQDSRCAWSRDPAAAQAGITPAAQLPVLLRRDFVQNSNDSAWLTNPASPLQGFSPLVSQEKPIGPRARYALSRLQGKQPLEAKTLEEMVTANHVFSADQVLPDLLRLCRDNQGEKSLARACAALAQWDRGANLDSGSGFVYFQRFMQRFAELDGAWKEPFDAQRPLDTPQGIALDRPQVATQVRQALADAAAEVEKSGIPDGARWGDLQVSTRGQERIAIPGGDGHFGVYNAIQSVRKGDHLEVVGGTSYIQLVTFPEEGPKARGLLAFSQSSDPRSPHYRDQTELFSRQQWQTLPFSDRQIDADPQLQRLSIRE", "test": "PvdQ acylase enzyme activity blockers – biochemical, fluorescence, plate reader and imaging, cherry-picks, dose response (AID 493231)"}, "[6]": {"target": "T1, Mannose-6-phosphate isomerase (Homo sapiens, UniProt P34949)", "T1 sequence (P34949 whole entry)": "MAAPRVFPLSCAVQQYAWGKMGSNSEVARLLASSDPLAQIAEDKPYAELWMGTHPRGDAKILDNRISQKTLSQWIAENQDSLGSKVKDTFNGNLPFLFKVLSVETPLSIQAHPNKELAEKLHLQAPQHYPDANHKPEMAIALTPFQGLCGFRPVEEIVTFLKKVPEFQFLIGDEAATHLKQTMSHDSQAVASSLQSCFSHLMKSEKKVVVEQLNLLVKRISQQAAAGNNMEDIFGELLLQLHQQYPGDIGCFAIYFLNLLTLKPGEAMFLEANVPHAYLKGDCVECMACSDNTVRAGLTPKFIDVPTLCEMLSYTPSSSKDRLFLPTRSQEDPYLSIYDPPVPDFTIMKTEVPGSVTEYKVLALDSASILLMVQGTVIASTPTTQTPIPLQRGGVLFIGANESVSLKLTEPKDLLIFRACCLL", "test": "MPI inhibition at elevated mannose 6-phosphate – biochemical, fluorescence intensity, high mannose 6-phosphate, primary screen (AID 1220)"}, "[7]": {"target": "T1, Mannose-6-phosphate isomerase", "test": "MPI enzyme activity inhibition – biochemical, fluorescence intensity, coupled assay, primary screen (AID 1209)"}, "[8]": {"target": "Protein Rev (Human immunodeficiency virus type 1 group M subtype B (isolate HXB2)(HIV-1), UniProt P04618)", "sequence (P04618 whole entry)": "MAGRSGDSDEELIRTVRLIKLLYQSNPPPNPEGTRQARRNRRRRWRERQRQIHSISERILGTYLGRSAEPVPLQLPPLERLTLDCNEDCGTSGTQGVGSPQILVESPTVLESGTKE", "test": "blockers of HIV Rev/RRE RNA complex – biochemical, fluorescence polarization, HIV-1, dose response (AID 434976)", "parameters": "species or system Human immunodeficiency virus 1"}, "[9]": {"target": "T2, RNA-binding protein pos-1 (Caenorhabditis elegans, UniProt G5EF15)", "T2 sequence (G5EF15 whole entry)": "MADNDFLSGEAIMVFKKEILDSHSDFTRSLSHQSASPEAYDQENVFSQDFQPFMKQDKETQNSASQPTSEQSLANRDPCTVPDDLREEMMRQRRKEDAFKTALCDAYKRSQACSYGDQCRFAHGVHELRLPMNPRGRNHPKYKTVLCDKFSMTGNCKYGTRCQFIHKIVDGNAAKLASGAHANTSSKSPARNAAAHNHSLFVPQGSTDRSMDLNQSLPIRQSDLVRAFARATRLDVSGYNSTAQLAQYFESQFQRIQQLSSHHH", "test": "disruptors of C. elegans POS-1 RNA interaction – biochemical, fluorescence polarization, dose response (AID 1964);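 note: purified POS-1 fused to maltose binding protein made in E. coli; potency of compounds blocking POS-1 binding to fluorescent RNA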"}, "[10]": {"target": "T3, Zinc finger protein mex-5 (Caenorhabditis elegans, UniProt Q9XUB2)", "T3 sequence (Q9XUB2 whole entry)": "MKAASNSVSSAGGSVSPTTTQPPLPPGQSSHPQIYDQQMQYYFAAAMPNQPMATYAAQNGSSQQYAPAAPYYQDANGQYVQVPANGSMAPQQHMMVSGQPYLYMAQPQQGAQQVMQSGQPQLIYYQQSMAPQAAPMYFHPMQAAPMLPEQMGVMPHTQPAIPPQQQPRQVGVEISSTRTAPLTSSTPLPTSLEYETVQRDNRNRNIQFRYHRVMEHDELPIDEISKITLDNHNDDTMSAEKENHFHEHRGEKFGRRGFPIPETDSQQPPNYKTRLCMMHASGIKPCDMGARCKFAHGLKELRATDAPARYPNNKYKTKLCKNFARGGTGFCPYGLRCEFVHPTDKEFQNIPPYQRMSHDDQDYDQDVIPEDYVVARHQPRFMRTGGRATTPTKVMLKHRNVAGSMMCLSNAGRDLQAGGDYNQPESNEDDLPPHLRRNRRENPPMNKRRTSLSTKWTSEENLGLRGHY", "test": "potency of MEX-5 RNA-binding blockers – biochemical, C. elegans, fluorescence polarization, dose response (AID 1960)"}, "[11]": {"target": "Female germline-specific tumor suppressor gld-1 (Caenorhabditis elegans, UniProt Q17339)", "sequence (Q17339 whole entry)": "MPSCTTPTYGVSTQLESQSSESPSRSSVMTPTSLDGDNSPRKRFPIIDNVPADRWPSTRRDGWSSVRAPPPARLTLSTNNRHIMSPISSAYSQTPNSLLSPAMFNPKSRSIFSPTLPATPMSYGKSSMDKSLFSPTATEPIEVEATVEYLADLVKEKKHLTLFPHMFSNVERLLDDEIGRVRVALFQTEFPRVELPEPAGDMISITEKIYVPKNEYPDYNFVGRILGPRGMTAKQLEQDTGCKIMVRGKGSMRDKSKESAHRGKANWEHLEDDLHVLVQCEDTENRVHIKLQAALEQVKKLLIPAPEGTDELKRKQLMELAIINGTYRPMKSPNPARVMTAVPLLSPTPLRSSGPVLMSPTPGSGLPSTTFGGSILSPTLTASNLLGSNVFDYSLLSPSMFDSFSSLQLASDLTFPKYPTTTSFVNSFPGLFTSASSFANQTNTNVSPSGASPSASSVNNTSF", "test": "blockers of GLD-1/TGE RNA complex formation – biochemical, fluorescence polarization, C. elegans, dose response (AID 2802);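 note: fluorescence polarization of labeled TGE RNA bound by purified gld-1 protein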"}, "[12]": {"target": "G-protein coupled receptor 55 (Homo sapiens, UniProt Q9Y2T6)", "sequence (Q9Y2T6 whole entry)": "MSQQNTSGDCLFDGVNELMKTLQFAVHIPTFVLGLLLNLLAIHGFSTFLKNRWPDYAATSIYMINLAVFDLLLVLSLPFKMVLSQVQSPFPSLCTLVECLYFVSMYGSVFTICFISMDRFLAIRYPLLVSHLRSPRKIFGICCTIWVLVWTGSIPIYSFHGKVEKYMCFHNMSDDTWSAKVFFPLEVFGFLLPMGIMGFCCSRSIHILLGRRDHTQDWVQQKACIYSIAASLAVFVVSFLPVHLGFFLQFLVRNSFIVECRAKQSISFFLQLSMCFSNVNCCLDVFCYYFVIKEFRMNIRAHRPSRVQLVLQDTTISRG", "test": "selective activators of receptor GPR55 – imaging, U2OS cells, beta-arrestin-GFP redistribution, primary screen (AID 1961)", "assay_type": "functional"}, "[13]": {"target": "Intestinal-type alkaline phosphatase (Homo sapiens, UniProt P09923)", "sequence (P09923 whole entry)": "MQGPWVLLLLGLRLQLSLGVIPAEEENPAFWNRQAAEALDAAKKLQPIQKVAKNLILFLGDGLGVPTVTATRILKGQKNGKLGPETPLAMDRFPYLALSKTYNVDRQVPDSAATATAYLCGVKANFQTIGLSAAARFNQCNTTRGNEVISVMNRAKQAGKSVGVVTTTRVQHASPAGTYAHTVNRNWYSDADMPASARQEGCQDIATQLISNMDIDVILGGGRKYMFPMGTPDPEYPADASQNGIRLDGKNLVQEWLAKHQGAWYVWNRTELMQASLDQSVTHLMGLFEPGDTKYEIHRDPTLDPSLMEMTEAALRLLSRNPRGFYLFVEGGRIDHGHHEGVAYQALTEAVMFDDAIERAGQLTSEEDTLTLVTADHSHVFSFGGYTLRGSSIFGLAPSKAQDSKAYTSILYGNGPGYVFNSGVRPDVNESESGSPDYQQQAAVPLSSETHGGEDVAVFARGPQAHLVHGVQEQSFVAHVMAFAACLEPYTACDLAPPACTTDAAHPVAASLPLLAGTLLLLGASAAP", "test": "Dose Response confirmation of uHTS hits from a small molecule inhibitors of human intestinal alkaline phosphatase via a luminescent assay. [Related pubchem assays (depositor defined):AID2544, AID2574]", "assay_type": "functional"}, "[14]": {"test": "A cytotoxicity screen of small molecule inhibitors of the PhoP region in Salmonella typhi identified in the primary screen. [Related pubchem assays: 1850, 1864, 1985 ]", "assay_type": "functional"}, "[15]": {"test": "cells", "assay_type": "functional"}, "[16]": {"target": "T4, Neuropeptide Y receptor type 1 (Homo sapiens, UniProt P25929)", "T4 sequence (P25929 whole entry)": "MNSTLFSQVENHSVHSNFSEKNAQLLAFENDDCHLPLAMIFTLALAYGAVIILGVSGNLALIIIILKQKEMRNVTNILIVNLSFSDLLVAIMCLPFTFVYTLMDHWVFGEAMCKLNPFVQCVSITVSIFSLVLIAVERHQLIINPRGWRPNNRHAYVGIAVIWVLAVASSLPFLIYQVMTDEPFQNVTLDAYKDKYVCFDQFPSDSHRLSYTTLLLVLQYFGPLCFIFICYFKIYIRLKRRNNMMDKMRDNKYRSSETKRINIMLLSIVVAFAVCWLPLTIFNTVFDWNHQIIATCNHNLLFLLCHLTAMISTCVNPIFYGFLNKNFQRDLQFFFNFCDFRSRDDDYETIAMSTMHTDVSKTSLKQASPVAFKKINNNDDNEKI", "test": "IC50 of human NPY-Y1 blockers – cell-based, dose response (AID 1277)", "assay_type": "functional"}, "[17]": {"target": "T5, Neuropeptide Y receptor type 2 (Homo sapiens, UniProt P49146)", "T5 sequence (P49146 whole entry)": "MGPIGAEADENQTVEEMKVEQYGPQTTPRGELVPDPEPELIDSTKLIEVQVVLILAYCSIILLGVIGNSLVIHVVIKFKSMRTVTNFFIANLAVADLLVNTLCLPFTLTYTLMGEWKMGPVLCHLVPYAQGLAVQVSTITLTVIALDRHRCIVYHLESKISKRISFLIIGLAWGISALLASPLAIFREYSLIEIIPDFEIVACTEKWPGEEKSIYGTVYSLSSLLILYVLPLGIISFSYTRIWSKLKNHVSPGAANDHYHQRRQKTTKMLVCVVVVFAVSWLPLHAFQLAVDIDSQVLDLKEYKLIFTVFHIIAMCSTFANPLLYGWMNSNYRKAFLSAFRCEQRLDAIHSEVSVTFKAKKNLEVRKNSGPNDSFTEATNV", "test": "IC50 for human NPY-Y2 blockade – cell-based, counter-screen for NPY-Y1 antagonist project, dose response (AID 1278)", "assay_type": "functional"}},
  "note": "Calls of active or inactive are those of the source.",
  "data": [
    {"compound": "CC(C)(C)OC(=O)NN=C(S)NC1CCCCC1", "values": [
      {"measurement": "IC50", "setting": "[1]", "value": "> 100 µM (active)"}
    ]},
    {"compound": "CCOc1ccc2nc(NC(=O)C3(C)CC3(Br)Br)sc2c1", "note": "(stereo not given)", "values": [
      {"measurement": "CC50", "setting": "[2]", "value": "19.4 µM (active)"},
      {"measurement": "IC50", "setting": "[3]", "value": "47.8 µM (active)"}
    ]},
    {"compound": "O=C(O)[C@@H]1[C@@H]2C[C@H]3c4[nH]c5ccccc5c4CCN3C[C@@H]2CC[C@@H]1O", "values": [
      {"measurement": "AC50", "setting": "[4]", "value": "31.6 µM (inconclusive)"}
    ]},
    {"compound": "O=C(c1cccc([N+](=O)[O-])c1)N1CC2C3C=CC(C3)C2C1", "note": "(stereo not given)", "values": [
      {"measurement": "AC50", "setting": "[5]", "value": "7.93 µM (active)"}
    ]},
    {"compound": "Cc1cc(C)n(-c2nnc(N3CCN(c4ccc(F)cc4)CC3)nn2)n1", "values": [
      {"measurement": "IC50", "setting": "[6]", "value": "> 50 µM (not active)"},
      {"measurement": "IC50", "setting": "[7]", "value": "> 50 µM (not active)"}
    ]},
    {"compound": "Cc1c(O)ccc(-c2n[nH]c(C(=O)O)c2-c2nc3ccccc3s2)c1O", "values": [
      {"measurement": "IC50", "setting": "[8]", "value": "> 75.4 µM (not active)"},
      {"measurement": "EC50", "setting": "[9]", "value": "15.3 µM (active)"},
      {"measurement": "EC50", "setting": "[10]", "value": "14 µM (inconclusive)"},
      {"measurement": "IC50", "setting": "[11]", "value": "5.41 µM (active)"}
    ]},
    {"compound": "CC(=O)c1c(C(C)=O)c(C)n(Cc2ccc3c(c2)OCO3)c1C", "values": [
      {"measurement": "EC50", "setting": "[12]", "value": "> 32 µM (inactive)"}
    ]},
    {"compound": "CCCCn1c(=O)[nH]c2nc3cc(NC(C)=O)ccc3nc2c1=O", "values": [
      {"measurement": "IC50", "setting": "[8]", "value": "6.5 µM (active)"},
      {"measurement": "IC50", "setting": "[11]", "value": "0.84 µM (active)"}
    ]},
    {"compound": "CCCCOc1cccc(C2C(C(=O)c3ccc4c(c3)OCCO4)=C(O)C(=O)N2CCN2CCOCC2)c1", "note": "(stereo not given)", "values": [
      {"measurement": "IC50", "setting": "[13]", "value": "> 100 µM (inactive)"}
    ]},
    {"compound": "COc1ccccc1C(=O)Nc1nnc(-c2ccc(F)cc2)o1", "values": [
      {"measurement": "EC50", "setting": "[14]", "value": "> 50 µM (active)"}
    ]},
    {"compound": "COC(=O)c1cc(-c2ccc(OC)cc2)on1", "values": [
      {"measurement": "IC50", "setting": "[15]", "value": "3.5 µM (active)"},
      {"measurement": "AC50", "setting": "[5]", "value": "0.67 µM (active)"}
    ]},
    {"compound": "CCOC(=O)c1c(CSc2ccccc2)n(C)c2ccc(O)c(CN3CCOCC3)c12", "values": [
      {"measurement": "IC50", "setting": "[16]", "value": "1.94 µM (active)"},
      {"measurement": "IC50", "setting": "[17]", "value": "> 35 µM (not active)"}
    ]}
  ]
}
